Key:
EV1 IRES = assay type: cell-based, EV1 Farouk strain; details: Hela cells, 5 μM, 24 h
[1] = test system: Coxsackie virus B3 (CVB3); test: CVB3 infection of A549 cells, cell viability (CTG assay / crystal violet); assay type: cell-based, Nancy strain; details: 18 h post infection
Protocol: (§1) FIG. 1. […] A549 cells were treated for 1 h with different concentrations of vemurafenib before Echovirus 1 (EV1), Coxsackie virus B3 (CVB3) or Coxsackie virus A9 (CVA9) infection, and vemurafenib was present after addition of viruses. Further, non-infected control cells were included. After 18 h post infection, the cell viability was determined by cell viability Glo-titer assay according to the instructions by the manufacturer (CTG assay, which measures cellular ATP levels, Promega; left figure) or crystal violet staining as described before (right figure; Martikainen et al., 2015). Values are means±SD.
(§2) Adenocarcinoma human alveolar basal epithelial (A549, ATCC) cells were cultured in Dulbecco's modified eagle medium (DMEM; Gibco) supplemented with 10% fetal bovine serum (FBS; Gibco), 1% Glutamax (Gibco) and 1% penicillin and streptomycin antibiotics (Gibco) for 24 h. […] In addition, non-infected control cells were included. After 18 h post infection (p.i.), the cell viability was determined by cell titer-Glo assay according to the instructions by the manufacturer (CTG assay, which measures cellular ATP levels, Promega; left figure) or crystal violet staining as described before (right figure; Martikainen et al. 2015). Values are means±SD.

EV1 [2] = test: Time of addition assay, EV1 infection of A549 cells, VP1 labeling; assay type: cell-based; details: EV1, 5 μM, infection followed until 6 h p.i.
EV1 [3] = test: EV1 replication in A549 cells by dsRNA (J2) labeling; assay type: cell-based; details: 5 μM, 3, 4 or 6 h p.i.
[4] = test system: semliki forest virus (SFV); assay type: cell-based; details: Hela cells, 5 or 10 μM, 6 h
HPEV1 IRES = assay type: cell-based, HPEV1 strain 22 Harris; details: Hela cells, 5 μM, 24 h
EV1 RNA = test: Transfection of EV1 genomic RNA into A549 cells, VP1 labeling; details: 5 μM, 6 h
viral protease 3C = viral protease 3C (Coxsackievirus B3, UniProt P03313); test: Viral protease 3C action on G3BP1 in Hela cell homogenate, western blotting; assay type: biochemical; details: 5, 10 or 20 μM, RT for 18 h
viral protease 3C, sequence (P03313 1541-1723): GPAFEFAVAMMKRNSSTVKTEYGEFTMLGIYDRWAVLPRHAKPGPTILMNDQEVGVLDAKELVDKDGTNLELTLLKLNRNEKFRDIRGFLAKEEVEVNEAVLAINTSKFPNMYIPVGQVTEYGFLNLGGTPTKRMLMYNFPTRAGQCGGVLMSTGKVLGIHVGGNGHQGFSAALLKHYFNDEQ
Protocol: (§3) FIG. 18. […] The results were detected by western blotting and known cellular targets for 2A and 3C, poly A binding protein (PABP) and stress granule assembly factor 1 (G3BP1) respectively, were immunolabeled. The results are representative of two separate experiments.
(§4) The reaction was carried out in buffer containing 20 mM HEPES (pH 7.4), 0.12 M KCH3COO, 4 mM Mg(CH3COO)2 and 5 mM DTT with or without vemurafenib (5, 10 or 20 μM) being present. The reactions were carried out at RT for 18 h, after which they were terminated by adding Laemmli sample buffer and heating at 100° C. for 9 min. The samples were run in 4-20% Miniprotean TGX stain free gel (Biorad). The gel was UV-activated for 5 min with Chemidoc MP (Biorad) to reveal the total protein amount, after which the proteins were transferred to PVDF membrane (Immobilon-P, Merck Millipore). Next, the blot was blocked o/n with 5% BSA in 0.05% tween in TBS. Poly A binding protein (PABP) was detected using 1:100 dilution of mouse anti-PABP (Santa Cruz). Stress granule assembly factor 1 G3BP1 was detected using 1:1000 dilution of mouse anti-G3BP1 (Santa Cruz).

[5] = test system: vesicular stomatitis virus (VSV); assay type: cell-based
viral protease 2A = viral protease 2A (Coxsackievirus B3, UniProt P03313); test: Viral protease 2A action on PABP in Hela cell homogenate, western blotting; assay type: biochemical; details: 5, 10 or 20 μM, RT for 18 h
viral protease 2A, sequence (P03313 852-1001): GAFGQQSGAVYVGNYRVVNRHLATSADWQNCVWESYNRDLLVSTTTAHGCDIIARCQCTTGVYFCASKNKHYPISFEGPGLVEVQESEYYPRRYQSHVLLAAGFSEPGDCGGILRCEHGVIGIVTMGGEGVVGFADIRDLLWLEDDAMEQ
Protocol: as §3, §4

EV1-infected A549 cells = assay type: cell-based, human
Poliovirus 3 = assay type: cell-based, polio-3 (vaccine strain); details: A549 cells, 2 days of infection, Cell Titer Glo
CVB4 = test: Persistent CVB4 infection of Panc-1 cells, viral titers and viral RNA; assay type: cell-based; details: 7.5 μM each 2 to 3 days
3D polymerase of CVB3 = 3D polymerase of CVB3 (Coxsackievirus B3, UniProt P03313); test: RNA elongation assay with viral 3D polymerase; assay type: biochemical; details: various inhibitor concentrations, RT
3D polymerase of CVB3, sequence (P03313 1724-2185): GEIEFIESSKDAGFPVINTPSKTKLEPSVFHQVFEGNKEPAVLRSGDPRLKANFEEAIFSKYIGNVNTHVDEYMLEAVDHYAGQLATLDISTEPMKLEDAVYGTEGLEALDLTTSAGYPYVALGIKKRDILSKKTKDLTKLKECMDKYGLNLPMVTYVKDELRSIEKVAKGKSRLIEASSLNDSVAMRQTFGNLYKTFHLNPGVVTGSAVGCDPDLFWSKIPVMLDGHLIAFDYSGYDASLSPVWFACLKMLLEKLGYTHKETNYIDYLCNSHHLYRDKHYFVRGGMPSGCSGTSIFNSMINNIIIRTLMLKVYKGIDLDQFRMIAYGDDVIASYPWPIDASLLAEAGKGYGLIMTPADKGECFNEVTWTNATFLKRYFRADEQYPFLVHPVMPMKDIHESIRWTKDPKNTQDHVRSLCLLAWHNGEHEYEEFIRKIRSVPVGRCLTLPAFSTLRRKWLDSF
Protocol: FIG. 19. […] An RNA elongation assay was used to study the effect of vemurafenib on viral 3D polymerase. […] At 15 min, GTP and ATP were added along with RNA2 (SEQ ID NO:2) allowing 3D+RNA1 complexes to incorporate ATP and GTP (forming +2 product) as well as initiate and incorporate GTP and RNA2 (forming +1 product). After 10 min, each reaction was “chased” to fully elongated product by adding the remaining NTPs.
An RNA elongation assay was used to study the effect of vemurafenib on viral 3D polymerase. […] At 15 min, GTP and ATP were added along with RNA2 (SEQ ID NO: 2) allowing 3D+RNA1 complexes to incorporate ATP and GTP (forming +2 product) as well as initiate and incorporate GTP and RNA2 (forming +1 product). After 10 min, each reaction was “chased” to fully elongated product by adding the remaining NTPs.

[6] = test system: human rhinovirus B14 (HRVB14); test: HRVB14 replication in Hela cells by dsRNA (J2) labeling; details: 5 μM, 6 h at +34° C.
[7] = test system: Coxsackie virus A9 (CVA9); test: CVA9 infection of A549 cells, cell viability (CTG assay / crystal violet); assay type: cell-based, Griggs strain; details: 18 h post infection
Protocol: as §1, §2

[8] = test system: Coxsackie virus B (CVB) serotypes (1-6); test: CVB serotypes 1-6 infection of A549 cells, crystal violet viability; assay type: cell-based; details: 18 h of infection, dose dependent
Protocol: FIG. 2. […] Different concentrations of vemurafenib were tested against different Coxsackie virus B (CVB) serotypes (1-6) by treating A549 cells with the drug for 1 h and then infecting the cells with the viruses. Cell viability was determined after 18 h of infection using crystal violet staining. The results were normalized to control sample with no virus infection and 0 μM concentration of vemurafenib (CTRL). The values are means±SD.
Finally, the cell viability was determined using crystal violet staining. The results were normalized to control sample with no virus infection and 0 μM concentration of vemurafenib (CTRL). The values are means±SD.

EV1 [9] = test: Uncoating of radioactively labeled EV1 in endosomes of A549 cells, sucrose gradients; details: 5 μM, 4 h p.i.
influenza A(H1N1)pdm09 = details: reported by McKimm-Breschkin et al.; cited from earlier work
Echovirus 1 (EV1) = assay type: cell-based, Farouk strain
CV-B4 E2 = test: CVB4 infection in mice, infectious viral titer in heart and pancreas; assay type: in vivo, Hsd:ICR(CD-1) female mice; details: 10 mg/kg intraperitoneally once a day for 5 days, sacrificed on day 6
[10] = test system: human parechovirus 1 (HPEV1); assay type: cell-based; details: A549 cells, 5 μM, 6 h
[11] = test system: CVB4 E2 diabetogenic strain; test: CVB4 infection of Min-6 pancreatic beta cells, crystal violet viability; assay type: cell-based; details: mouse pancreatic beta cell line Min-6, 0.25-7.5 μM, MOI of 1, crystal violet
adenovirus 5 = test: Adenovirus 5 GFP transduction of A549 cells; details: 5 μM, 17 h
EV1 particle = test: Real-time spectroscopic assay of EV1 particle opening (Sybr green II); details: 5 μM, 3 h at +37° C.
[12] = test system: respiratory syncytial virus (RSV); assay type: cell-based; details: Hela cells, 5 or 10 μM, 20 h
[13] = 1 h pre-treatment, dose dependent

CCCS(=O)(=O)Nc1ccc(F)c(C(=O)c2c[nH]c3ncc(-c4ccc(Cl)cc4)cc23)c1F [vemurafenib, N-(3-(5-(4-chlorophenyl)-1H-pyrrolo[2,3-b]pyridine-3-carbonyl)-2,4-difluorophenyl)propane-1-sulfonamide]
effect on EV1 IRES-based translation (mCherry fluorescence) (EV1 IRES): does not have direct effects
effect on CVB3 infection (cell viability) [1, 13]: rescued the cells
concentration of maximal inhibition of CVB3 infection [1]: 5 µM
time of administration at which efficacy is lost (EV1 [2]): ≥ 3 h p.i.
effect on EV1 replication (replication intermediate, dsRNA) (EV1 [3]): prevented
effect on SFV infection (GFP infection percentage) [4]: not effective
effect on HPEV1 IRES-based translation (mCherry fluorescence) (HPEV1 IRES): does not have direct effects
effect on infection after transfection of genomic RNA of EV1 (EV1 RNA): totally prevented infection
effect on viral protease 3C action (G3BP1) (viral protease 3C): does not have direct effects
effect on VSV infection (GFP infection percentage) [5]: not effective
effect on viral protease 2A action (PABP) (viral protease 2A): does not have direct effects
effects on BRAF in the transcriptomics study (EV1-infected A549 cells): no effects
effect on EV1-induced up- or downregulation of mRNAs (EV1-infected A549 cells; A549 cells, 6 h pi, Illumina Human HT-12 v4): attenuated almost all the effects of the virus
effect on polio-3 infection (cell viability) (Poliovirus 3): efficiently rescued
presence of viral RNA in persistently infected Panc-1 cells (CVB4; qPCR at day 7, 9, 14 and 21): totally eradicated
level of infectious viral particles (capsid) in persistently infected Panc-1 cells (CVB4; supernatant titers on HEp-2 cells): totally eradicated
effect on CVB3 3D polymerase action (3D polymerase of CVB3): does not prevent its action, nor binding or elongation of the nascent RNA chain
effect on HRVB14 replication (dsRNA J2 intensity) [6]: decreases the replication
effect on CVA9 infection (cell viability) [7, 13]: rescued the cells
concentration of maximal inhibition of CVA9 infection [7]: 5 µM
effect on infection by CVB serotypes 1 to 6 (cell viability) [8]: inhibited
effect on uncoating of EV1 inside endosomes (EV1 [9]): does not affect the uncoating
efficacy against influenza A(H1N1)pdm09 infection compared with oseltamivir (influenza A(H1N1)pdm09): greater efficacy than oseltamivir
effect on EV1 infection (cell viability) (Echovirus 1 (EV1)): prevents the infection
levels of infectious CVB4 in heart tissue (CV-B4 E2): significantly decreased
levels of infectious CVB4 in pancreas tissue (CV-B4 E2): significantly decreased
effect on HPEV1 infection (VP1 positive cells) [10]: not effective
effect on CVB4 infection of Min-6 cells (cell viability) [11]: efficiently rescued
effect on adenovirus 5 transduction (GFP positive cells) (adenovirus 5): not effective
direct virucidal effect on EV1 particle (genome release) (EV1 particle): does not have direct virucidal effects
effect on RSV infection (GFP infection percentage) [12]: not effective

From patent US12599591B2, “Vemurafenib and salts thereof for use in the treatment of enteroviral infections” (Jyväskylän yliopisto, priority 2018, dated 2026)
